Values quoted from earlier work, collected in patent US20250195680A1, “CANCER TREATMENT WITH ANTI-CLAUDIN 18.2 ADC” (priority 2023, published 2025).

System: gastric cancer
Details: combined with CAPOX or mFOLFOX6 vs chemotherapy alone

zolbetuximab: anti-CLDN18.2 monoclonal antibody
efficacy in treating gastric cancer: effective in treating gastric cancer
